Structures can show the parent of a compound that is named as a salt.
Assays:
TNFα = experiment: Measurement of LPS Induced-TNFα in THP-1 Cells; type: cell-based, human; settings: Homo sapiens, THP-1; read-out: TNFalpha IC50
Experimental: The lipid peroxidation assay method of Ohkawa, H.; Ohishi, N.; Yaki, K. Anal. Biochem. 1979, 95, 351 was used to evaluate […]. […] […] Cells were collected and spun at 1500 g for 10 minutes. Supernatant was collected and analyzed for TNFα.
Mean Percent Inhibition of TNF-alpha by compounds of the present invention is set forth in Table B. TNF-alpha inhibition data is set forth in Table B-1. OT-551 was used in both native form and in the form of nanoparticles. […] Other nitrogenous heterocyclic species of the invention are expected to show similar improvement in efficacy when disposed in nanoparticulate form.

[1] = system: Doxorubicin resistant SaOS2 cells; experiment: Cancer cell viability (MTT) in the presence or absence of doxorubicin; type: cell-based, human; settings: compound 50 ug/mL, 3 days

Row | Structure (SMILES) | melting point | IC50 (TNFα) [µM] | Mean OD (×10^−3), MTT viability ([1]; Dox. 10^−6 M (+)) | Mean OD (×10^−3), MTT viability ([1]; absence of Dox. (−))
1 | CC1(C)CC(Oc2nsnc2C(=O)O)CC(C)(C)N1O.Cl | 209.1 °C (dec.) | – | – | –
2 | CC1(C)CC(Oc2nsnc2N2CCN(C(=O)c3ccco3)CC2)CC(C)(C)N1O.Cl | 198.1 °C (dec.) | – | – | –
3 | CC1(C)CC(Oc2nc3ccccc3s2)CC(C)(C)N1O.Cl | 160 °C (dec.) | – | – | –
4 | CC1(C)C=C(COc2ccccc2N2CCOCC2)C(C)(C)N1O.Cl | 155.7 °C (dec.) | – | – | –
5 | Cc1c(C)c2c(c(C)c1O)CCC(C)(C(=O)NC1CC(C)(C)N(O)C(C)(C)C1)O2.Cl (centres unmarked) | 174.9 °C (dec.) | – | – | –
6 | COc1cc2c(cc1OC)CN(c1nsnc1OC1CC(C)(C)N(O)C(C)(C)C1)CC2.Cl | 166.9 °C (dec.) | – | – | –
7 | CC1(C)CC(Nc2nc3ccccc3s2)CC(C)(C)N1O.Cl | 183 °C (dec.) | – | – | –
8 | COc1ccc2nc(NC3CC(C)(C)N(O)C(C)(C)C3)sc2c1.Cl | 220 °C (dec.) | – | – | –
9 | CC1(C)c2ccc(Br)cc2C(C)(C)N1O.Cl | 214.1 °C | – | – | –
10 | CC(C)(C)OC(=O)c1nsnc1OC1CC(C)(C)N(O)C(C)(C)C1.Cl | 197 °C (dec.) | – | – | –
11 | CC1(C)C=C(CO)C(C)(C)N1O (as salt: chloride) [Compound 8, 2,5-dihydro-2,2,5,5-tetramethyl-1-hydroxyl-1H-pyrrol-3-yl)methanol hydrogen chloride] | 141.9 °C (dec.) | – | – | –
12 | CC1(C)CC(Oc2nsnc2OC2CC(C)(C)N(O)C(C)(C)C2)CC(C)(C)N1O (as salt: chloride) [Compound 14, 1-hydroxyl-4-(4-(2,2,6,6-tetramethylpiperidin-1-hydroxyl-4-yloxy)-1,2,5-thiadiazol-3-yloxy)-2,2,6,6-tetramethylpiperidine bis-hydrogen chloride] | 216.2 °C (dec.) | – | – | –
13 | CC1(C)CC(O)C(C)(C)N1O (centres unmarked) (as salt: salt) [Compound 7, 2,2,5,5-Tetramethyl-pyrrolidine-1,3-diol] | 155.5 °C (dec.) | – | – | –
14 | COc1cc(COC2CC(C)(C)N(O)C(C)(C)C2)cc(OC)c1OC.Cl [Compound 48, 1-Hydroxyl-4-(3,4,5-trimethoxybenzyloxy)-2,2,6,6-tetramethylpiperidine hydrochloride] | – | – | 50.67 ×10^−3 | 1118.00 ×10^−3
15 | COc1cc(C2=CC(C)(C)N(O)C(C)(C)C2)cc(OC)c1OC.Cl [Compound 50, 1-Hydroxy-2,3,6-trihydro-4-(3,4,5-trimethoxyphenyl)-2,2,6,6-tetramethylpiperidine hydrochloride] | – | – | 54.50 ×10^−3 | 1226.33 ×10^−3
16 | CN1CCN(c2nsnc2OC2CC(C)(C)N(O)C(C)(C)C2)CC1.Cl.Cl [Compound 52] | – | – | 195.00 ×10^−3 | 1186.33 ×10^−3
17 | CC1(C)CC(Oc2nsnc2N2CCN(c3ccccc3)CC2)CC(C)(C)N1O.Cl.Cl [Compound 53, 4-(4-phenylpiperazin-1-yl)-3-[(2,2,6,6-tetramethyl-1-hydroxypiperidinyl)-4-oxy]-1,2,5-thiadiazole hydrochloride] | – | – | 170.00 ×10^−3 | 1333.75 ×10^−3
18 | CC1(C)C(CO)=C(c2ccc(F)cc2)C(C)(C)N1O.Cl [Compound 59, (4-(4-fluorophenyl)-1-hydroxy-2,5-dihydro-2,2,5,5-tetramethyl-1H-pyrrol-3-yl)methanol hydrochloride] | – | – | 352.00 ×10^−3 | 1105.00 ×10^−3

The next lines start with results.

Row | melting point | IC50 (TNFα) [µM] | Structure (SMILES) | Mean OD (×10^−3), MTT viability ([1]; Dox. 10^−6 M (+)) | Mean OD (×10^−3), MTT viability ([1]; absence of Dox. (−))
19 | 179.2 °C (dec.) | – | CC1(C)CC(Oc2nsnc2C#N)CC(C)(C)N1O (as salt: hydrochloride) [Compound 45] | – | –
20 | 178.3 °C (dec.) | – | CC1(C)CC(NS(C)(=O)=O)CC(C)(C)N1O (as salt: salt) [Compound 10, 1-hydroxy-4-methanesulfonamido-2,2,6,6-tetramethylpiperidine] | – | –
21 | – | 30.9 | CC1(C)C=C(CO)CC(C)(C)N1O.Cl [Compound 25, 1-hydroxy-1,2,3,6-tetrahydro-2,2,6,6-tetramethylpyridin-4-yl)methanol hydrogen chloride] | – | –
22 | – | ≥ 100 | CC1(C)CC(NC(=O)CCN2CCOCC2)CC(C)(C)N1O.Cl [Compound 26, N-(1-hydroxy-2,2,6,6-tetramethylpiperidin-4-yl)-3-morpholinopropanamide hydrogen chloride] | 261.50 ×10^−3 | 1056.33 ×10^−3
23 | – | ≥ 100 | CC1(C)CC(c2nn[nH]n2)CC(C)(C)N1O.Cl [Compound 30, 1-hydroxy-2,2,6,6-tetramethyl-4-(2H-tetrazol-5-yl)piperidine hydrogen chloride] | 310.00 ×10^−3 | 1301.25 ×10^−3
24 | – | 38.2 | CC1(C)CC(NC(=O)C2CC2)CC(C)(C)N1O.Cl [Compound 31, N-(1-hydroxy-2,2,6,6-tetramethylpiperidin-4-yl)cyclopropanecarboxamide hydrogen chloride] | 322.25 ×10^−3 | 1175.25 ×10^−3
25 | – | ≥ 100 | CC1(C)CC(Oc2nsnc2N2CCOCC2)C(C)(C)N1O.Cl (centres unmarked) [Compound 32, 4-(4-(1-hydroxy-2,2,5,5-tetramethylpyrrolidin-3-yloxy)-1,2,5-thiadiazol-3-yl)morpholine hydrogen chloride] | 231.50 ×10^−3 | 985.67 ×10^−3
26 | – | 55.7 | CC1(C)CC(CO)C(C)(C)N1O.Cl (centres unmarked) [Compound 33, 1-hydroxy-2,2,5,5-tetramethylpyrrolidin-3-yl)methanol hydrogen chloride] | – | –
27 | – | 2.4 | CC1(C)CC(CO)CC(C)(C)N1O.Cl [Compound 34, (1-hydroxy-2,2,6,6-tetramethylpiperidin-4-yl)methanol hydrogen chloride] | 302.75 ×10^−3 | 1168.25 ×10^−3
28 | – | 4 | CC1(C)C=C(CC2CNCCO2)C(C)(C)N1O.Cl.Cl (centres unmarked) [Compound 36, ((1-hydroxy-2,5-dihydro-2,2,5,5-tetramethyl-1H-pyrrol-3-yl)methyl)morpholine bis-hydrogen chloride] | 297.00 ×10^−3 | 1110.75 ×10^−3
29 | – | ≥ 100 | CC1(C)CC(=O)C(C)(C)N1O.Cl [Compound 37, 1-hydroxy-2,2,5,5-tetramethylpyrrolidin-3-one hydrogen chloride] | 366.25 ×10^−3 | 1329.75 ×10^−3
30 | 145 °C (dec.) | ≥ 100 | CC1(C)COC(=O)C(C)(C)N1O.Cl [Compound 39, N-Hydroxyl-3,3,5,5-tetramethylmorpholin-2-one hydrochloride] | 311.00 ×10^−3 | 1201.00 ×10^−3
31 | 187 °C (dec.) | 0.9 | CCCCC1(O)CC(C)(C)N(O)C(C)(C)C1.Cl [Compound 41, 1,4-dihydroxy-4-n-butyl-2,2,6,6-tetramethylpiperidine hydrochloride] | 261.25 ×10^−3 | 824.75 ×10^−3
32 | 220.8 °C (dec.) | ≥ 100 | CC1(C)CC(Oc2nsnc2-c2ccccc2)CC(C)(C)N1O.Cl [Compound 44, 1-hydroxy-4-(4-phenyl-1,2,5-thiadiazol-3-yloxy)-2,2,6,6-tetramethylpiperidine hydrochloride] | 13.25 ×10^−3 | 23.00 ×10^−3
33 | 164.7 °C (dec.) | – | CC1(C)CC(NC(=O)CCCCC2CCSS2)CC(C)(C)N1O.Cl (centres unmarked) [Compound 49, 5-(1,2-dithialan-3-yl)-N-(1-hydroxy-2,2,6,6-tetramethylpiperidin-4-yl)pentanamide hydrochloride] | 195.00 ×10^−3 | 1330.25 ×10^−3
34 | 155.7 °C | – | CC(C)c1nsnc1OCC1=CC(C)(C)N(O)C1(C)C.Cl [Compound 51] | 71.00 ×10^−3 | 1208.25 ×10^−3
35 | – | 3 | CN1CCN(c2nsnc2OC2CC(C)(C)N(O)C(C)(C)C2)CC1.Cl.Cl [Compound 52, dihydrochloride] | – | –
36 | 218 °C (dec.) | – | CC1(C)CC(Oc2nsnc2N2CCSCC2)CC(C)(C)N1O.Cl [Compound 55, 4-(4-(1-hydroxy-2,2,6,6-tetramethylpiperidin-4-yloxy)-1,2,5-thiadiazol-3-yl)thiomorpholine hydrochloride] | 285.75 ×10^−3 | 1037.25 ×10^−3
37 | – | 12 | CC1(C)CC(=CC(=O)N2CCN(c3ccccc3)CC2)CC(C)(C)N1O [Compound 56, hydrochloride] | 308.75 ×10^−3 | 1153.00 ×10^−3
38 | 181 °C | – | COc1cc(CNC2CC(C)(C)N(O)C(C)(C)C2)cc(OC)c1OC.Cl.Cl [Compound 58, N-(3,4,5-trimethoxybenzyl)-1-hydroxy-2,2,6,6-tetramethylpiperidin-4-amine dihydrochloride] | 291.50 ×10^−3 | 1207.00 ×10^−3
39 | – | ≥ 100 | CC1(C)C=C(c2ccc(F)cc2)CC(C)(C)N1O [Compound 62, hydrochloride] | 40.25 ×10^−3 | 184.75 ×10^−3
40 | – | ≥ 100 | CC1(C)c2ccc(N3CCOCC3)cc2C(C)(C)N1O [Compound 66, 2-hydroxy-1,1,3,3-tetramethyl-5-morpholinoisoindoline hydrochloride] | – | –

Reference: US20080200405A1, “Drug Resistance Reversal In Neoplastic Disease” (priority 2007, published 2008)
